Values of other authors, collected in patent US20090123919A1, “Diagnosing Pathological Conditions Using Interallelic Epigenetic Variations” (Allelis Diagnostics Ltd., priority 2005, published 2009).

Tested on: aneuploid genotypes
Conditions: in the presence of 5-azacytidine, an inhibitor of DNA methylation

## Nc1ncn([C@@H]2O[C@H](CO)[C@@H](O)[C@H]2O)c(=O)n1 [5-azacytidine]
  loss of the inherent temporal order of allelic replication: can be reversed
